The source of these data is patent publication US12319655B2, “RAF kinase inhibitors and methods of use thereof” (Deciphera Pharmaceuticals, LLC, priority 2021, dated 2025).

For assay [1], the target named is A-Raf kinase (SEQ. ID No: 1) (Homo sapiens (Human), UniProt P10398, Y301D/Y302D). Nature of the assay: Biochemical Assay for A-Raf (2). The following applies: Table J, biochemical assay (2); read-out: ARAF (2). As for the experimental part: Biochemical Assay for A-Raf (2)
Activity of A-Raf kinase (SEQ. ID No: 1) was determined spectroscopically using a coupled pyruvate kinase/lactate dehydrogenase assay that continuously monitors the ATP hydrolysis-dependent oxidation of NADH (e.g., Schindler et al., Science, 2000, 289, 1938-1942). Assays were conducted in 384-well plates (25 μL final volume) using 20 nM A-Raf (Eurofins), 1.5 units pyruvate kinase, 2.1 units lactate dehydrogenase, 1 mM phosphoenol pyruvate, 0.7 mM NADH, 100 nM MEK (SignalChem), and 1 mM ATP in assay buffer (100 mM Tris, pH 7.5, 15 mM MgCl2, 0.5 mM DTT, 0.1% octyl-glucoside, 0.002% (w/v) BSA, and 0.002% Triton X-100). Inhibition of A-Raf was measured by adding serial diluted test compound (final assay concentration of 1% DMSO). A decrease in absorption at 340 nm was monitored hourly for 4 h at 30° C. on a multi-mode microplate reader (BioTek). The reaction rate was calculated using the 3 to 4 h time frame. The reaction rate at each concentration of compound was converted to percent inhibition using controls (i.e., reaction with no test compound and reaction with a known inhibitor) and IC50 values were calculated by fitting a four-parameter sigmoidal curve to the data using Prism (GraphPad software).

For assay [2], the target named is C-Raf kinase (SEQ. ID NO: 3) (Homo sapiens (Human), UniProt P04049, Y340D/Y341D). Nature of the assay: Biochemical Assay for C-Raf (2). The following applies: Table J, biochemical assay (2); read-out: CRAF (2). As for the experimental part: Biochemical Assay for C-Raf (2)
Activity of C-Raf kinase (SEQ. ID NO: 3) was determined spectroscopically using a coupled pyruvate kinase/lactate dehydrogenase assay that continuously monitors the ATP hydrolysis-dependent oxidation of NADH (e.g., Schindler et al., Science, 2000, 289, 1938-1942). Assays were conducted in 384-well plates (25 μL final volume) using 3.84 nM C-Raf (Eurofins), 1.5 units pyruvate kinase, 2.1 units lactate dehydrogenase, 1 mM phosphoenol pyruvate, 0.7 mM NADH, 50 nM MEK (SignalChem), and 1 mM ATP in assay buffer (100 mM Tris, pH 7.5, 15 mM MgCl2, 0.5 mM DTT, 0.1% octyl-glucoside, 0.002% (w/v) BSA, and 0.002% Triton X-100). Inhibition of C-Raf was measured by adding serial diluted test compound (final assay concentration of 1% DMSO). A decrease in absorption at 340 nm was monitored hourly for 4 h at 30° C. on a multi-mode microplate reader (BioTek). The reaction rate was calculated using the 2 to 3 h time frame. The reaction rate at each concentration of compound was converted to percent inhibition using controls (i.e., reaction with no test compound and reaction with a known inhibitor) and IC50 values were calculated by fitting a four-parameter sigmoidal curve to the data using Prism (GraphPad software).

Another assay has as its system A375 cells. Nature of the assay: A375 Cell Proliferation Assay (2). It is filed as cell-based. The following applies: Homo sapiens, A-375.
Another assay has as its system Miapaca-2 cells. Nature of the assay: MiaPaca-2 Cell Proliferation Assay (2). The format is cell-based. The following applies: Homo sapiens, MIA PaCa-2, single agent. As for the experimental part:
MiaPaca-2 Cell Proliferation Assay (2)
Miapaca-2 cells (catalog #CRL-1420) are obtained from the American Type Culture Collect (ATTC, Manassas, VA). Briefly, cells were grown in DMEM supplemented with 10% characterized fetal bovine serum (Invitrogen, Carlsbad, CA), 2.5% New Zealand sourced horse serum and 1% Penicillin/Streptomycin/L-Glutamine at 37° C., 5% CO2, and 95% humidity. Cells are expanded until reaching 70-95% confluency at which point they are sub-cultured or harvested for assay use. A serial dilution of test compound is dispensed into a 384-well black clear bottom plate in triplicate. Seven hundred fifty cells are added per well in 50 μL complete growth medium in the 384-well plate. Plates are incubated for 67-72 h at 37° C., 5% CO2, and 95% humidity. At the end of the incubation, 10 μL of a 440 μM solution of resazurin (Sigma, St. Louis, MO) in PBS is added to each well of the plate and plates are incubated for an additional 5-6 h at 37° C., 5% CO2, and 95% humidity. Plates are read on a Synergy2 or equivalent reader (Biotek, Winooski VT) using an excitation of 540 nm and an emission of 600 nm. Data is analyzed using Prism software (GraphPad, San Diego, CA) to calculate IC50 values.

Sequence of A-Raf kinase (SEQ. ID No: 1) (P10398 other isoform, or with tags, fused parts or gaps Y301D (already in the parent)/Y302D (already in the parent)): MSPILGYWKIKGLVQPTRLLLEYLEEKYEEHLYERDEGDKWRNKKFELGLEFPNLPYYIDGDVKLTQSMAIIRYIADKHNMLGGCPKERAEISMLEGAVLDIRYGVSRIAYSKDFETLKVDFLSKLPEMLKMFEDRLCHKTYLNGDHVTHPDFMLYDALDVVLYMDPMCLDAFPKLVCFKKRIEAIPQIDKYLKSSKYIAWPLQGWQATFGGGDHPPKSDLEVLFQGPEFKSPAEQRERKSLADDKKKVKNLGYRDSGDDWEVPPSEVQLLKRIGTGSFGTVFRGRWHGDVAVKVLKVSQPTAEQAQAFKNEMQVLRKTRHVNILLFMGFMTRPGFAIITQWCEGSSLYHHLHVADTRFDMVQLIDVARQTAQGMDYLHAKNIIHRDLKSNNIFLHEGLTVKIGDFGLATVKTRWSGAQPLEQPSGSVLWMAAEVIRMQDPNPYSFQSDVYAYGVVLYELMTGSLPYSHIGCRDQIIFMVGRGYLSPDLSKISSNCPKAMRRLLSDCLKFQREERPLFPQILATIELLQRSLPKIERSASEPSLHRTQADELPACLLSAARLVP
Sequence of C-Raf kinase (SEQ. ID NO: 3) (P04049 307-648 Y340D/Y341D): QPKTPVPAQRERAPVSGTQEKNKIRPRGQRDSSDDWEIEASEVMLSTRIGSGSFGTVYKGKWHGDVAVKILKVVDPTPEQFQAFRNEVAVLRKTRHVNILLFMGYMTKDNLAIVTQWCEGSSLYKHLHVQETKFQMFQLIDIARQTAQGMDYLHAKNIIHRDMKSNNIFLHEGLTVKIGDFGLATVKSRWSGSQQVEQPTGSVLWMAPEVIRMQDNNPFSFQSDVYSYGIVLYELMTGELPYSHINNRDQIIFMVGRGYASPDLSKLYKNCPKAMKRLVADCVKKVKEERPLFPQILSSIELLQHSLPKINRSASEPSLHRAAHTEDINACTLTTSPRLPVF

Take `CNC(=O)c1cc(-c2cc(-c3cc(NC(=O)c4cnnc(C(C)(C)F)c4)ccc3C)ccn2)ccn1` [Example 495]: the IC50 is 0.5 to 1 µM in assay [1], at most 0.1 µM in assay [2], at most 0.1 µM in the assay on A375 cells and 1 to 10 µM in the assay on Miapaca-2 cells.

In the case of `Cc1ccc(NC(=O)c2ccnc(C(C)(C)F)c2)cc1-c1cnnc(-c2ccnc(C(N)=O)c2)c1` [Example 486], the IC50 in assay [1] is 1 to 10 µM; in assay [2], at most 0.1 µM; in the assay with A375 cells, 0.1 to 0.5 µM; in the assay on Miapaca-2 cells, 1 to 10 µM.

For the compound `CNC(=O)c1cc(-c2cc(-c3cc(NC(=O)c4ccnc(C(C)(C)F)n4)ccc3C)ccn2)ccn1` [Example 494], the IC50 was 1 to 10 µM in assay [1], at most 0.1 µM in assay [2], 1 to 10 µM with A375 cells and 1 to 10 µM in the assay on Miapaca-2 cells.

Regarding `CNC(=O)c1cc(-c2cc(-c3cc(NC(=O)c4ccnc(C(C)(C)F)c4)c(F)cc3C)ccn2)ccn1` [Example 497], the IC50 in assay [1] lay in the range of 1 to 10 µM; in assay [2], 0.1 to 0.5 µM; in the assay on A375 cells, 0.1 to 0.5 µM; in the assay on Miapaca-2 cells, 1 to 10 µM.

On to `Cc1ccc(NC(=O)c2cccc(C(F)(F)F)c2)cc1-c1ccnc(-c2ccnc(NC(=O)C3CC3)c2)c1` [Example 502], for which the IC50 in assay [1] is 0.1 to 0.5 µM; in assay [2] it was at most 0.1 µM; in the assay on A375 cells, at most 0.1 µM; in the assay with Miapaca-2 cells it was 0.5 to 1 µM.

On to `CNC(=O)c1cc(-c2cc(-c3cc(NC(=O)c4ccnc(C5(F)CC5)c4)ccc3C)ccn2)ccn1` [Example 487], for which the IC50 is 0.1 to 0.5 µM in assay [1], at most 0.1 µM in assay [2], at most 0.1 µM in the assay on A375 cells and 1 to 10 µM with Miapaca-2 cells.

Turning to `Cc1ccc(NC(=O)c2cn(C)nc2C(F)(F)F)cc1-c1cncc(-c2ccnc(NC(=O)C3CC3)c2)c1` [Example 500], the IC50 is 1 to 10 µM in assay [1], at most 0.1 µM in assay [2], 1 to 10 µM with A375 cells and 1 to 10 µM with Miapaca-2 cells.

Consider `[2H]C([2H])([2H])NC(=O)c1cc(-c2cc(-c3cc(NC(=O)c4ccnc(C(C)(C)F)c4)ccc3C)cc(C)n2)ccn1` [Example 493], for which the IC50 in assay [1] is 1 to 10 µM; in assay [2], at most 0.1 µM; with A375 cells, at most 0.1 µM; in the assay on Miapaca-2 cells it was 1 to 10 µM.

Consider `CC(C)(F)c1cc(C(=O)Nc2ccc(F)c(-c3ccnc(-c4ccnc(C(N)=O)c4)c3)c2)ccn1` [Example 491], for which the results for the IC50 (in assay [1]; in assay [2]; with A375 cells) were 1 to 10 µM, at most 0.1 µM and 1 to 10 µM, respectively.

Turning to `[2H]C([2H])([2H])NC(=O)c1cc(-c2cc(-c3cc(NC(=O)c4ccnc(C5(F)CC5)c4)ccc3C)cc(C)n2)ccn1` [Example 498], the IC50 is 1 to 10 µM in assay [1], 0.1 to 0.5 µM in assay [2], 0.1 to 0.5 µM in the assay on A375 cells and 1 to 10 µM with Miapaca-2 cells.

Turning to `CNC(=O)c1cc(-c2cc(-c3cc(NC(=O)c4ccnc(C5(F)CC5)c4)ccc3C)cc(C)n2)ccn1` [Example 496], the IC50 in assay [1] is 1 to 10 µM; in assay [2], at most 0.1 µM; with A375 cells it was at most 0.1 µM; with Miapaca-2 cells it was 1 to 10 µM.

With `Cc1ccc(NC(=O)c2ccc(C(F)(F)F)cc2)cc1-c1ccnc(-c2ccnc(NC(=O)C3CC3)c2)c1` [Example 501], the IC50 in assay [1] was 1 to 10 µM; in assay [2], at most 0.1 µM; in the assay with A375 cells it was 0.1 to 0.5 µM; with Miapaca-2 cells, 1 to 10 µM.

As for `Cc1ccc(NC(=O)c2ccnc(C(C)(C)F)c2)cc1-c1cc(-c2ccnc(C(N)=O)c2)ncc1F` [Example 490], the IC50 is 1 to 10 µM in assay [1], at most 0.1 µM in assay [2] and 0.1 to 0.5 µM in the assay with A375 cells.

On to `Cc1ccc(NC(=O)c2cc(C(F)(F)F)ccc2F)cc1-c1ccnc(-c2ccnc(NC(=O)C3CC3)c2)c1` [Example 503], for which the IC50 was 0.1 to 0.5 µM in assay [1], at most 0.1 µM in assay [2], 0.1 to 0.5 µM with A375 cells and 1 to 10 µM in the assay on Miapaca-2 cells.

For `[2H]C([2H])([2H])NC(=O)c1cc(-c2cc(-c3cc(NC(=O)c4ccnc(C(C)(C)F)c4)ccc3C)ccn2)ccn1` [Example 489], the IC50 was 0.1 to 0.5 µM in assay [1], at most 0.1 µM in assay [2], at most 0.1 µM in the assay with A375 cells and 1 to 10 µM in the assay with Miapaca-2 cells.

In the case of `Cc1ccc(NC(=O)c2ccnc(C(C)(C)F)c2)cc1-c1cc(-c2ccnc(C(N)=O)c2)ncn1` [Example 488], the IC50 in assay [1] was 0.5 to 1 µM; in assay [2], at most 0.1 µM; with A375 cells, 0.1 to 0.5 µM.

For `CNC(=O)c1cc(-c2cc(-c3cc(NC(=O)c4ccnc(C(C)(C)F)c4)ccc3Cl)ccn2)ccn1` [Example 485], the IC50 is 1 to 10 µM in assay [1], at most 0.1 µM in assay [2], at most 0.1 µM with A375 cells and 1 to 10 µM with Miapaca-2 cells.

`CNC(=O)c1cc(-c2cc(-c3cc(NC(=O)c4ccnc(C(C)(C)F)c4)ncc3C)ccn2)ccn1` [Example 499]: the IC50 in assay [1] is 1 to 10 µM; in assay [2], at most 0.1 µM; in the assay on A375 cells, at most 0.1 µM; in the assay with Miapaca-2 cells it was 1 to 10 µM.

As to `CNC(=O)c1cc(-c2cc(-c3cc(NC(=O)c4cnnc(C(C)(F)F)c4)ccc3C)ccn2)ccn1` [Example 492], the IC50 in assay [1] is 1 to 10 µM; in assay [2], at most 0.1 µM; in the assay with A375 cells, 0.1 to 0.5 µM.
